# Measured values from paper PMC4057759, “Biological Evaluation and 3D-QSAR Studies of Curcumin Analogues as Aldehyde Dehydrogenase 1 Inhibitors” (International Journal of Molecular Sciences, 2014).
# Where two headings read alike, the source gives them in different places.
# Assays:
# baker's yeast ALDH1 = target: T1, baker's yeast ALDH1 (Saccharomyces cerevisiae, UniProt P46367); assay: In vitro ALDH1 inhibitory assay (propanal oxidation, NAD, OD 340 nm); format: biochemical; conditions: for inhibitory activity on ALDH1 (in words): in vitro
# T1 construct: purchased Sigma (St. Louis, MO, USA)
# T1 sequence (P46367 25-519): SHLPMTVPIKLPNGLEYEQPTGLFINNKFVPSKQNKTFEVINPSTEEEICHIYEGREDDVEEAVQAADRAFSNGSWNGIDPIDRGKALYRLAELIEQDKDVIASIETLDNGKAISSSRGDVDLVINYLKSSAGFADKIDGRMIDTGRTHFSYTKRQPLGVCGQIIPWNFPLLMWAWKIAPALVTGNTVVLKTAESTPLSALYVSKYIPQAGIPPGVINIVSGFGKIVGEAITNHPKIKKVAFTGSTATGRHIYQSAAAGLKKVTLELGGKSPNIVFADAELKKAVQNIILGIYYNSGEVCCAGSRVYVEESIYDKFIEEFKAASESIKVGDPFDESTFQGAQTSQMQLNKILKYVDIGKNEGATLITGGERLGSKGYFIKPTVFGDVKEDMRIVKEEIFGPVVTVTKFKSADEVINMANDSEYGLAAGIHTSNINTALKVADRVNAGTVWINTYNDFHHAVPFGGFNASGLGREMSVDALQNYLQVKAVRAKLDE
# Procedure: (§1) In vitro ALDH1 inhibitory assay was performed as follows. To a reaction mixture containing 1 mM EDTA, 100 mM KCl, 2 mM NAD, 0.1 M sodium phosphate buffer pH 7.4, 1 U/mg baker’s yeast ALDH1 was added by Multifunction microplatereader (Tecan Infinite 200, TECAN Austria GmbH, Männedorf, Switzerland). The reaction was started by the addition of 1 mM propanal in final volume of 300 μL and the optical density (OD) was read at 340 nm at 0 min (just after the addition of the substrate) and reacted for 5 min. The enzyme activity is expressed as OD/min at 25 °C at the pH 7.4. Results are the average of three experiments done in duplicate. […] The IC50 values in units of μM were transformed in pIC50 (–log IC50). The data was randomly divided into training set (26 samples) and test set (4 samples * carry out external validation).
# ALDH1 = target: T2, ALDH1 (Saccharomyces cerevisiae, UniProt P46367); assay: Kinetic analysis of inhibition of ALDH1 (Lineweaver-Burk plots, propanal); format: biochemical, baker's yeast; conditions: double-reciprocal plots, oxidation of propanal
# T2 construct: purchased Sigma (St. Louis, MO, USA)
# T2 sequence (P46367 25-519): T1 sequence (P46367 25-519)
# Procedure: as §1, with “Figure 1. […] In vitro” for “In vitro”
# Solubility (remark) = format: physicochemical
# [1] = 1 mM propanal, 2 mM NAD, pH 7.4, 25 °C, read-out: IC50
# [2] = Table 3, experimental activity, read-out: Actual pIC50 (converted)
# [3] = Table 1, –log IC50, read-out: pIC50 (converted)
Structure (SMILES),IC50 (baker's yeast ALDH1; [1]),IC50 (baker's yeast ALDH1; [2]),also measured
COc1cc(/C=C2\CNC/C(=C\c3cc(OC)c(O)c(OC)c3)C2=O)cc(OC)c1O [Compound 3],30 µM,30.2 µM,–
O=C1/C(=C/c2ccc(O)c(O)c2)CNC/C1=C\c1ccc(O)c(O)c1 [Compound 4],39.4 µM,39.8 µM,–
O=C(/C=C/c1ccc(O)c(O)c1)/C=C/c1ccc(O)c(O)c1 [Compound 5],23.6 µM,23.4 µM,–
O=C1/C(=C/c2ccc(O)c(O)c2)CC/C1=C\c1ccc(O)c(O)c1 [Compound 6],3.41 µM,–,inhibition type (ALDH1): mixed-competitive inhibition type; IC50 (baker's yeast ALDH1; [3]): 3.47 µM; inhibitory activity on ALDH1 (in words) (baker's yeast ALDH1): high inhibitory activity; activity relative to curcumin (baker's yeast ALDH1; ratio of IC50 values): over 10 times
O=C1/C(=C/c2ccc(O)c(O)c2)CCC/C1=C\c1ccc(O)c(O)c1 [Compound 7],–,–,"IC50 (baker's yeast ALDH1; Actual pIC50, Table 3, experimental activity): 6.31 µM; IC50 (baker's yeast ALDH1; IC50, 1 mM propanal, 2 mM NAD, pH 7.4, 25 °C): 6.5 µM; inhibitory activity on ALDH1 (in words) (baker's yeast ALDH1): high inhibitory activity; IC50 (baker's yeast ALDH1; pIC50, Table 1, –log IC50): 6.31 µM"
O=C1/C(=C/c2ccc(O)c(O)c2)COC/C1=C\c1ccc(O)c(O)c1 [Compound 8],7.9 µM,7.94 µM,inhibitory activity on ALDH1 (in words) (baker's yeast ALDH1): high inhibitory activity
O=C1/C(=C/c2ccc(O)c(O)c2)CSC/C1=C\c1ccc(O)c(O)c1 [Compound 9],22.7 µM,22.9 µM,–
O=C1/C(=C/c2ccc(O)cc2)CC/C1=C\c1ccc(O)cc1 [Compound 10],54.2 µM,63.1 µM,–
O=C1/C(=C/c2ccc(O)cc2)COC/C1=C\c1ccc(O)cc1 [Compound 11],39.7 µM,38.9 µM,IC50 (baker's yeast ALDH1; [3]): 38.9 µM
O=C1/C(=C/c2cc(O)cc(O)c2)CC/C1=C\c1cc(O)cc(O)c1 [Compound 12],43.2 µM,43.7 µM,–
COc1cc(/C=C2\CC/C(=C\c3ccc(O)c(OC)c3)C2=O)ccc1O [Compound 13],24.2 µM,24 µM,–
COc1cc(/C=C2\CSC/C(=C\c3ccc(O)c(OC)c3)C2=O)ccc1O [Compound 14],31.3 µM,31.6 µM,–
COc1cc(/C=C2\COC/C(=C\c3cc(OC)c(O)c(OC)c3)C2=O)cc(OC)c1O [Compound 15],16.6 µM,16.6 µM,–
COc1cc(/C=C2\COC/C(=C\c3cc(F)c(O)c(OC)c3)C2=O)cc(F)c1O [Compound 16],53.2 µM,53.7 µM,–
O=C(/C=C/c1cc(Br)c(O)c(Br)c1)/C=C/c1cc(Br)c(O)c(Br)c1 [Compound 17],25.8 µM,25.7 µM,–
O=C1/C(=C/c2cc(Br)c(O)c(Br)c2)CCC/C1=C\c1cc(Br)c(O)c(Br)c1 [Compound 18],17.5 µM,17.4 µM,–
O=C1/C(=C/c2cc(Br)c(O)c(Br)c2)COC/C1=C\c1cc(Br)c(O)c(Br)c1 [Compound 19],18.7 µM,18.6 µM,–
O=C1/C(=C/c2cc(Br)c(O)c(Br)c2)CSC/C1=C\c1cc(Br)c(O)c(Br)c1 [Compound 20],17.7 µM,17.8 µM,–
COc1cc(/C=C2\CSC/C(=C\c3cc(OC)c(OC)c(OC)c3)C2=O)cc(OC)c1OC [Compound 21],63.1 µM,63.1 µM,–
CN(C)c1ccc(/C=C2\CCC/C(=C\c3ccc(N(C)C)cc3)C2=O)cc1 [Compound 22],73.5 µM,74.1 µM,–
CN(C)c1ccc(/C=C2\CSC/C(=C\c3ccc(N(C)C)cc3)C2=O)cc1 [Compound 23],69.4 µM,69.2 µM,–
O=C1/C(=C/c2ccc(Br)cc2)CCC/C1=C\c1ccc(Br)cc1 [Compound 24],8.2 µM,8.32 µM,inhibition type (ALDH1): mixed-competitive inhibition type; IC50 (baker's yeast ALDH1; [3]): 8.32 µM; inhibitory activity on ALDH1 (in words) (baker's yeast ALDH1): high inhibitory activity; solubility (Solubility (remark)): not good
O=C1/C(=C/c2cccs2)CC/C1=C\c1cccs1 [Compound 25],30.1 µM,29.5 µM,IC50 (baker's yeast ALDH1; [3]): 29.5 µM
O=C1/C(=C/c2ccncc2)CSC/C1=C\c1ccncc1 [Compound 26],10.6 µM,10.7 µM,–
O=C1/C(=C/c2ccccn2)CC/C1=C\c1ccccn1 [Compound 29],–,13.8 µM,IC50 (baker's yeast ALDH1; [3]): 13.8 µM
O=C1/C(=C/c2ccccn2)CCC/C1=C\c1ccccn1 [Compound 30],18.4 µM,18.2 µM,–
COc1cc(/C=C/C(=O)CC(=O)/C=C/c2ccc(O)c(OC)c2)ccc1O [Curcumin],36.9 µM,–,–
"CCN(CC)C(=S)SSC(=S)N(CC)CC [Disufiram, disulfiram, reference compound]",2.91 µM,–,–
